Test results taken from ChEMBL document CHEMBL4414657, “Psiguadiols A-J, Rearranged Meroterpenoids as Potent PTP1B Inhibitors from Psidium guajava” (J Nat Prod, 2019).
pIC50: −log10 of the molar value.

How the values were obtained:
[1] = molecular target: T1, Tyrosine-protein phosphatase non-receptor type 1 (Homo sapiens) (UniProt P18031); assay: Inhibition of PTP1B (unknown origin) at 20 ug/ml using pNPP as substrate incubated for 30 mins by ELISA relative to control
T1 sequence (whole entry): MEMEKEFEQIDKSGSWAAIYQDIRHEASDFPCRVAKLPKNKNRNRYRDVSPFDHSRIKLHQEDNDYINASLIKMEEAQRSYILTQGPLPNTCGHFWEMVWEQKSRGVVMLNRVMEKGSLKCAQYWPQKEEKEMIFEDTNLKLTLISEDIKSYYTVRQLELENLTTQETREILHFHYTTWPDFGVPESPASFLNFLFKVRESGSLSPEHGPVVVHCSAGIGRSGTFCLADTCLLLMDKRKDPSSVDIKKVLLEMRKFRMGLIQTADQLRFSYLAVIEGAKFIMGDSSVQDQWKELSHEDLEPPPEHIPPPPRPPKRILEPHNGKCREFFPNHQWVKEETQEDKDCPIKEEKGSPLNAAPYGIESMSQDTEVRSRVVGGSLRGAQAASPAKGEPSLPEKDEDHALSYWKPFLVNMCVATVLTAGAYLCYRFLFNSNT

[2] = molecular target: T2, Tyrosine-protein phosphatase non-receptor type 1 (Homo sapiens, UniProt P18031); assay: Inhibition of PTP1B (unknown origin) using pNPP as substrate incubated for 30 mins by ELISA
T2 sequence (P18031 whole entry): T1 sequence (whole entry)

SMILES | inhibition [1] [%] | pIC50 [2]
C=C1CC[C@@H]2[C@H]([C@@H]3Oc4c(C=O)c(O)c(C=O)c(O)c4[C@H](c4ccccc4)[C@@]3(C)CC[C@H]1O)C2(C)C | > 96 | 4.64
CC(C)[C@@H]1CC[C@@H](C)[C@]2(O)C[C@@H]3[C@H](c4ccccc4)c4c(O)c(C=O)c(O)c(C=O)c4O[C@]3(C)C=C12 | > 96 | 4.72
C=C1CC[C@@H]2[C@H]([C@@H]3Oc4c(C=O)c(O)c(C=O)c(O)c4[C@H](c4ccccc4)[C@@]3(C)CC[C@@H]1O)C2(C)C | > 96 | 4.64
C=C1CC[C@@H]2[C@H](CC2(C)C)[C@@]2(CC[C@@H]1O)C[C@H](c1ccccc1)c1c(O)c(C=O)c(O)c(C=O)c1O2 | > 96 | 4.96
C/C1=C/C[C@@H]2[C@H]([C@@H]3Oc4c(C=O)c(O)c(C=O)c(O)c4[C@H](c4ccccc4)[C@@]3(C)CC[C@@H]1O)C2(C)C | > 96 | 5.04
CC(C)[C@@H]1CC[C@@H](C)[C@H]2C[C@@]3(O)[C@H](c4ccccc4)c4c(O)c(C=O)c(O)c(C=O)c4O[C@]3(C)C=C12 | > 96 | 5.21
C=C1CC[C@@H]2[C@H](CC2(C)C)[C@@]2(CC[C@H]1O)C[C@H](c1ccccc1)c1c(O)c(C=O)c(O)c(C=O)c1O2 | > 96 | 5.33
CC(C)[C@@H]1CC[C@@H](C)[C@H]2C[C@]34O[C@H]([C@@]21O)[C@@]3(C)Oc1c(C=O)c(O)c(C=O)c(O)c1[C@H]4c1ccccc1 | > 96 | 4.72
C/C1=C/C[C@@H]2[C@H](CC2(C)C)[C@@]2(CC[C@H]1O)C[C@H](c1ccccc1)c1c(O)c(C=O)c(O)c(C=O)c1O2 | > 96 | 4.92
CC(C)[C@@H]1CC[C@@H](C)[C@]23C[C@@H]4[C@H](c5ccccc5)c5c(O)c(C=O)c(O)c(C=O)c5O[C@]4(C)[C@@H](O)[C@]12O3 | > 96 | 4.97
